# In article PMC12567096, “An Efficacy- and In Vivo Exposure-Oriented Integrated Study to Investigate the Effective Components of Qishen Granule” (Pharmaceuticals, 2025):
# How the values were obtained:
# H9c2 cells = assay: Cytotoxicity on H9c2 cells (CCK-8); format: cell-based, rat; settings: H9c2 cells, n=3; for inhibition at 25 µM / inhibition at 50 µM / inhibition at 100 µM: Rattus norvegicus, read-out: Inhibition rate
# Description: (§1) Rat myocardial H9c2 cells (purchased from China Infrastructure of Cell Line Resources, Institute of Basic Medical Sciences, Chinese Academy of Medical Sciences) were cultured in DMEM supplemented with 10% fetal bovine serum (FBS), Penicillin (100 U/mL), and Streptomycin (100 μg/mL) at 37 °C under a humidified atmosphere of 5% CO2 and 95% air. For OGD/R treatment, H9c2 cells were cultured in glucose-free DMEM under hypoxic conditions (95%N2 + 5%CO2) for 4 h at 37 °C followed by complete medium under normal conditions with air (95%) and CO2 (5%) for 2 h. A control group was maintained under normal culture conditions (with glucose-containing DMEM and 5% CO2) without undergoing OGD/R treatment. CCK8 was used to assess cell viability. After treatment, H9c2 cells were seeded in 96-well plates, with each well supplemented with 10 μL of CCK-8 solution and then incubated for 1 h. Finally, the absorbance at 450 nm was detected by a microplate reader (Model […] 200 PRO, TECAN, Grodig, Austria).
# When evaluating the cytotoxicities of the absorbed compounds, the H9c2 cells were seeded in 96-well plates at a density of 1 × 10^4 cells/well; when cells reached 80% confluence, […] Afterward, the protective effects were verified by assessing the cell viability when treating with different concentrations (1, 10, 25, 50, and 100 μM) of the analytes prior to OGD/R treatment.
# [1] = Concentrations of 24 analytes in QSG treated plasma (Table S5); settings: for concentration at 0.08 h / concentration at 0.17 h / concentration at 0.5 h / concentration at 1 h / concentration at 2 h / concentration at 4 h / concentration at 8 h / concentration at 12 h: Sprague Dawley, rat, 7 g/kg; for Exposure level in vivo (in words) / Concentration: QSG treated plasma; for Exposure level in vivo (in words): Table S5; for Concentration: n = 5
# OGD/R-induced H9c2 cells = assay: Protective effect on OGD/R-induced H9c2 cells (CCK-8 cell viability); format: cell-based, rat; settings: 1, 10, 25, 50 and 100 μM prior to OGD/R, vs model group
# Description: as §1
# When evaluating the cytotoxicities of the absorbed compounds, the H9c2 cells were seeded in 96-well plates at a density of 1 × 10^4 cells/well; when cells reached 80% confluence, they were treated with 25 and 50 μM of the 24 analytes to screen the non-toxic concentration ranges. Afterward, the protective effects were verified by assessing the cell viability when treating with different concentrations (1, 10, 25, 50, and 100 μM) of the analytes prior to OGD/R treatment.
# [2] = Pharmacokinetic study in rats after oral administration of QSG
# Description: Ion source parameters were set as follows: temperatures of drying gas and sheath gas were 300 °C and 300 °C, flow rates of drying gas and sheath gas were 7 L/min and 11 L/min, the nebulizer was set at 35 psig, capillary voltage was 3500 V (−), and nozzle voltage was 2000 V (−). […] Chromatographic separations were conducted on a ZORBAX Eclipse Plus C18 column (3.0 × 50 mm, 1.8 μm, Agilent Technologies, California, USA). The mobile phase was composed of 0.1% aqueous FA (A, (v/v)) and 0.1% formic acid methanol (B), the flow rate was set at 0.5 mL/min, and the column oven was maintained at 40 °C.
# Protein precipitation was carried out for each time point for plasma samples, calibration samples, or QC samples by introducing four volumes of acetonitrile containing 400 ng/mL of icariin. Then, 10 μL 10% aqueous ascorbic acid (v/v) was spiked into each sample to prevent the oxidation of phenolic compounds. […] An aliquot (450 μL) of the supernatant was transferred and dried under nitrogen vacuum.
# The pharmacokinetic parameters were calculated by DAS software (version 2.0) for a non-compartmental analysis.
# [3] = rat plasma, single oral 7 g/kg QSG, n = 6
Compound,inhibition at 25 µM (H9c2 cells; 25 μM),inhibition at 50 µM (H9c2 cells; 50 μM),inhibition at 100 µM (H9c2 cells; 100 μM),Inhibition rate (H9c2 cells; 25 μM),Inhibition rate (H9c2 cells; 50 μM),Inhibition rate (H9c2 cells; 100 μM),H9c2 cell survival after OGD/R (in words) (OGD/R-induced H9c2 cells),Concentration ([1]; 0.5 h),Concentration ([1]; 1 h),also measured
COc1ccc(-c2coc3cc(O)ccc3c2=O)cc1O [Calycosin],6.8 ± 3.9%,6.3 ± 8.3%,9.3 ± 4.2%,–,–,–,–,–,–,"concentration at 0.08 h ([1]; plasma, oral): 0.966 ± 0.737 ng/mL; concentration at 0.17 h ([1]; plasma, oral): 2.15 ± 0.363 ng/mL; concentration at 0.5 h ([1]; plasma, oral): 2.51 ± 0.672 ng/mL; concentration at 1 h ([1]; plasma, oral): 1.7 ± 0.563 ng/mL; concentration at 2 h ([1]; plasma, oral): 0.825 ± 0.375 ng/mL; concentration at 4 h ([1]; plasma, oral): 0.589 ± 0.46 ng/mL; concentration at 8 h ([1]; plasma, oral): 0.737 ± 0.203 ng/mL; concentration at 12 h ([1]; plasma, oral): 0.647 ± 0.195 ng/mL"
"COc1ccc(-c2coc3cc(O[C@@H]4O[C@H](CO)[C@@H](O)[C@H](O)[C@H]4O)ccc3c2=O)cc1 [Formononetin-7-O-glucoside, Formononetin-7-O-D-glucoside]",–,–,–,0.8 ± 0.9%,9.1 ± 4.3%,11.1 ± 2.3%,–,–,–,–
COC(=O)C1=CO[C@@H](O[C@@H]2O[C@H](CO)[C@@H](O)[C@H](O)[C@H]2O)[C@@H]2[C@H](C)O[C@@H](O)C[C@H]12 [Morroniside],-10.6 ± 7.6%,2.1 ± 5.6%,8.1 ± 3.9%,–,–,–,significantly improve H9c2 cell survival rates,–,–,"Exposure level in vivo (in words) [1]: relatively lower exposure levels; concentration at 0.5 h ([1]; plasma, oral): 3.05 ± 0.802 ng/mL; concentration at 1 h ([1]; plasma, oral): 2.4 ± 0.829 ng/mL"
Liquiritin apioside,–,–,–,-25.2 ± 3.5%,-16.2 ± 3.6%,-6.1 ± 2.5%,significantly improve H9c2 cell survival rates,–,–,–
COC[C@@]12CC[C@H](OC)[C@]34C(C([C@H](OC)[C@H]13)[C@]1(OC(C)=O)[C@H]3[C@@H](OC(=O)c5ccccc5)[C@](O)(C[C@H]34)[C@@H](OC)[C@@H]1O)N(C)C2 [Hypaconitine],13.7 ± 4.1%,20.8 ± 3.2%,32.8 ± 1.2%,–,–,–,–,–,–,concentration at 0.08 h ([1]; in vivo): 0.048 ± 0.019 ng/mL; concentration at 0.17 h ([1]; in vivo): 0.202 ± 0.096 ng/mL; concentration at 0.5 h ([1]; in vivo): 0.308 ± 0.041 ng/mL; concentration at 1 h ([1]; in vivo): 0.34 ± 0.066 ng/mL; concentration at 2 h ([1]; in vivo): 0.331 ± 0.081 ng/mL; concentration at 4 h ([1]; in vivo): 0.212 ± 0.084 ng/mL; concentration at 8 h ([1]; in vivo): 0.071 ± 0.049 ng/mL; concentration at 12 h ([1]; in vivo): 0.005 ± 0.013 ng/mL
C=C[C@H]1[C@H](O[C@@H]2O[C@H](CO)[C@@H](O)[C@H](O)[C@H]2O)OC=C(C(=O)OC)[C@H]1CC(=O)O [Secoxyloganin],–,–,–,3.5 ± 1.2%,7.9 ± 3.3%,9.9 ± 2.7%,–,–,–,–
COC[C@]12O[C@H]1[C@@H](O)[C@@H]1C=CO[C@@H](O[C@@H]3O[C@H](CO)[C@@H](O)[C@H](O)[C@H]3O)[C@@H]12 [10-methoxyl catalpol],–,–,–,2.8 ± 0.9%,5.1 ± 4.3%,9.1 ± 4.2%,–,2.315 ± 0.283 ng/mL,1.293 ± 0.135 ng/mL,–
C=C[C@H]1[C@H](O[C@@H]2O[C@H](CO)[C@@H](O)[C@H](O)[C@H]2O)OC=C(C(=O)O)[C@H]1CC(=O)O [Secologanoside],–,–,–,-15.6 ± 7.9%,11.0 ± 7.7%,19.1 ± 3.7%,–,4.124 ± 1.235 ng/mL,2.135 ± 1.024 ng/mL,Concentration ([1]; 2 h): 1.274 ± 0.246 ng/mL
COc1ccc(CCO[C@@H]2O[C@H](CO[C@@H]3OC[C@H](O)[C@H](O)[C@H]3O)[C@@H](OC(=O)/C=C/c3ccc(O)c(OC)c3)[C@H](O[C@@H]3O[C@@H](C)[C@H](O)[C@@H](O)[C@H]3O)[C@H]2O)cc1O [Angoroside C],–,–,–,3.6 ± 4.5%,12.7 ± 5.1%,18.7 ± 1.1%,significantly improve H9c2 cell survival rates,4.290 ± 1.023 ng/mL,3.109 ± 0.501 ng/mL,Concentration ([1]; 2 h): 1.029 ± 0.203 ng/mL; Exposure level in vivo (in words) [1]: relatively lower exposure levels
O=C1C[C@@H](c2ccc(O[C@@H]3O[C@H](CO)[C@@H](O)[C@H](O)[C@H]3O)cc2)Oc2cc(O)ccc21 [Liquiritin],-7.4 ± 7.5%,11.6 ± 0.6%,17.6 ± 1.2%,–,–,–,–,–,–,"concentration at 0.08 h ([1]; plasma, oral): 2.07 ± 1.32 ng/mL; concentration at 0.17 h ([1]; plasma, oral): 11.8 ± 10.9 ng/mL; concentration at 0.5 h ([1]; plasma, oral): 26.8 ± 4.42 ng/mL; concentration at 1 h ([1]; plasma, oral): 17.8 ± 5.29 ng/mL; concentration at 2 h ([1]; plasma, oral): 8.3 ± 2.48 ng/mL; concentration at 4 h ([1]; plasma, oral): 4.02 ± 3.3 ng/mL; concentration at 8 h ([1]; plasma, oral): 2.17 ± 0.609 ng/mL; concentration at 12 h ([1]; plasma, oral): 1.36 ± 2.74 ng/mL"
COC(=O)C1=CO[C@@H](O[C@@H]2O[C@H](CO)[C@@H](O)[C@H](O)[C@H]2O)[C@@H]2[C@@H](C)[C@H](O)C[C@H]12 [7-epi-loganin],2.8 ± 0.9%,7.1 ± 4.3%,10.3 ± 3.5%,–,–,–,significantly improve H9c2 cell survival rates,–,–,"Exposure level in vivo (in words) [1]: relatively lower exposure levels; concentration at 0.5 h ([1]; plasma, oral): 1.73 ± 0.49 ng/mL; concentration at 1 h ([1]; plasma, oral): 1.5 ± 0.298 ng/mL"
"COc1ccc(-c2coc3cc(O[C@@H]4O[C@H](CO)[C@@H](O)[C@H](O)[C@H]4O)ccc3c2=O)cc1O [Calycosin-7-O-glucoside, Calycosin-7-O-D-glucoside]",–,–,–,-1.2 ± 3.5%,7.8 ± 6.4%,11.8 ± 6.1%,–,8.612 ± 0.681 ng/mL,3.192 ± 1.624 ng/mL,Concentration ([1]; 0.08 h): 1.161 ± 0.988 ng/mL; Concentration ([1]; 0.17 h): 2.081 ± 1.576 ng/mL; Concentration ([1]; 2 h): 3.096 ± 2.601 ng/mL; Concentration ([1]; 4 h): 1.198 ± 1.103 ng/mL; Concentration ([1]; 8 h): 1.241 ± 0.963 ng/mL; Concentration ([1]; 12 h): 0.536 ± 0.271 ng/mL
O=C(/C=C/c1ccc(O)c(O)c1)O[C@@H]1C[C@@](O)(C(=O)O)C[C@@H](O)[C@@H]1O [Neochlorogenic acid],–,–,–,-12.8 ± 1.3%,3.8 ± 2.2%,5.7 ± 2.3%,significantly improve H9c2 cell survival rates,–,–,"AUC0→∞ ([2]; Table S12, rats, oral QSG): 1418 ng·h/mL; AUC0→t [2, 3]: 167.1 ± 68.93 ng·h/mL; Cmax [2, 3]: 68.12 ± 4.044 ng/mL; MRT [2, 3]: 6.104 ± 2.911 h; Tmax [2, 3]: 0.398 ± 0.093 h"
O=C(/C=C/c1ccc(O[C@@H]2O[C@H](CO)[C@@H](O)[C@H](O)[C@H]2O)cc1)c1ccc(O)cc1O [Isoliquiritin],-18.3 ± 3.6%,8.5 ± 2.9%,13.5 ± 2.3%,–,–,–,–,–,–,concentration at 0.08 h ([1]; in vivo): 0.332 ± 0.496 ng/mL; concentration at 0.17 h ([1]; in vivo): 1.24 ± 0.874 ng/mL; concentration at 0.5 h ([1]; in vivo): 2.54 ± 0.684 ng/mL; concentration at 1 h ([1]; in vivo): 1.31 ± 0.788 ng/mL; concentration at 2 h ([1]; in vivo): 0.456 ± 0.573 ng/mL; concentration at 4 h ([1]; in vivo): 0.075 ± 0.309 ng/mL; concentration at 8 h ([1]; in vivo): 0.078 ± 0.159 ng/mL; concentration at 12 h ([1]; in vivo): 0.158 ± 0.323 ng/mL
O=C1C[C@@H](c2ccc(O)cc2)Oc2cc(O)ccc21 [Liquiritigenin],–,–,–,-4.4 ± 2.2%,2.3 ± 3.3%,8.5 ± 3.6%,–,4.378 ± 0.959 ng/mL,3.255 ± 1.246 ng/mL,Concentration ([1]; 0.08 h): 1.163 ± 0.835 ng/mL; Concentration ([1]; 0.17 h): 3.082 ± 0.977 ng/mL; Concentration ([1]; 2 h): 2.336 ± 1.150 ng/mL; Concentration ([1]; 4 h): 2.064 ± 0.888 ng/mL; Concentration ([1]; 8 h): 2.239 ± 1.209 ng/mL; Concentration ([1]; 12 h): 2.987 ± 1.135 ng/mL
